{"source": "patent US5519028A", "about": "“Antiviral preparations” (priority 1992, dated 1996)", "key": {"HIV-1 TIG2 (HIV-1AIDS) [1]": {"tested_on": "HIV-1 TIG2 (HIV-1AIDS)", "test": "HIV P24 production in PBMC, viral inoculum pretreated, isolate TIG2", "type": "cell-based", "conditions": "virus pretreated with 30 or 60 μg/ml", "protocol": "(§1) To test the efficacy of flavopereirine on the infectious capability of HIV-1, two experiments were conducted. […] After 2 hours of incubation, the cells were rinsed twice and cultivated in 1 ml of RPMI 1640 containing 20 IU of IL-2 per ml (Boehringer […], Germany), 2 μg of Polybrene (hexadimethrine bromide) per ml (Sigma, St. Louis, Mo., USA) and 10^-7 IU of goat antiserum acting against human alpha interferon (Janssen, Beerse, Belgium) per ml. Half the culture was changed after 72 hours, and thereafter every 48 hours until the 30th day. […] The surface material of the culture was tested by an immuno-enzymatic (ELISA) assay for the production of antigen P24 (Abbott, Chicago, Ill., USA) and the optical density (OD) of the resulting color was converted into P24 concentration from the slope of a standard nomogram, as described by W. Lu and J. -M. Andrieu, Journal of Virology, 66(1): 334-340 (1992)."}, "[2]": {"test": "Cytotoxicity in human monocytes", "type": "cell-based", "conditions": "human, monocytes", "protocol": "(§2) Product H was not used in these experiments at a rate of more than 20 μg/ml water, since above this rate, net toxicity could have been produced."}, "human monocytes": {"tested_on": "human monocytes", "test": "Cytotoxicity in human monocytes", "type": "cell-based", "conditions": "four donors", "protocol": "as §2"}, "HIV-1 TIG2 (HIV-1AIDS) [3]": {"tested_on": "HIV-1 TIG2 (HIV-1AIDS)", "test": "HIV P24 production, target PBMC pretreated, isolate TIG2", "type": "cell-based", "conditions": "for Post-infection production of HIV P24: PBMC + 30 μg/ml 2 hours", "protocol": "as §1"}, "IL-1β [4]": {"tested_on": "IL-1β", "test": "IL-1β production by monocytes of HIV-positive donors", "type": "cell-based, human", "protocol": "(§3) The effects of flavopereirine on the production of primary (IL-1β and TNF-α) and secondary (IL-6) cytokines by monocytes was also tested. The adhesive monocytes used were taken from the blood of two types of donors:\nHIV-positive donors from medical consultations. These individuals were in the early stages of HIV infection and, at the moment of taking the blood, were not undergoing any treatment. The risk factors involved were intravenous drug abuse for six of the donors, sexual transmission for three and blood transfusion (in Zaire) for one patient. No correlation was found between the risk factors and the results of the experiments.\nThe response of the monocytes taken from the various HIV-positive donors was tested in terms of spontaneous response. The quantities of cells received were low (the donors were not affected by cytapheresy), and the experiments were therefore limited by the number of cells available."}, "[5]": {"tested_on": "viruses of the Shope fibrome type", "conditions": "intracutaneously 200-600 μg or 2.5-500 mg/day; cited from earlier work"}, "H-9 cells": {"tested_on": "H-9 cells", "test": "Multiplication of non-infected H-9 cells", "type": "cell-based", "conditions": "30 and 60 μg/ml"}, "HIV-1": {"tested_on": "HIV-1", "test": "HIV-1 cytopathogenic effect on MT4 cells (syncytia count)", "type": "cell-based", "protocol": "An evaluation of the antiviral effect of flavopereirine was also undertaken by studying the cytopathogenic effect of the HIV virus on MT4 cells, given that a formation of syncytia was observed 4-6 days after infection by HIV-1, followed by the death of the cells.\nThe flavopereirine was used in the form of an alcoholic solution (40 mg in 100 μl alcohol). Dilutions were made in RPMI medium at 10% of FCS, 1% of PSN and 1% of glutamine. The MT4 cells were left to pre-incubate for two hours at 37° C. with a successive dilution of flavopereirine containing 3×10^5 cells for 10 μl of flavopereirine solution. The solution was obtained by adding 100 μl of a 10^-4 dilution of HIV-1 virus, producing a syncytia formation in 4-6 days. After one hour of incubation at 37° C., the infected MT4 cells were washed three times with RPMI solution before being placed in culture (3×10^5 cells/ml in microplates with 24 wells) with the presence of different dilutions of flavopereirine. The syncytia count was taken each day in duplicate."}, "HIV": {"tested_on": "HIV", "conditions": "human, in vivo"}, "[6]": {"tested_on": "human PBMC stimulated with PHA (blasts)", "test": "Cytotoxicity in PHA-stimulated PBMC with or without human AB serum", "type": "cell-based", "protocol": "The cytotoxicity of flavopereirine (compound H) in human PBMC stimulated with PHA was tested in the presence and absence of human AB serum as shown in Table IX."}, "HIV-1 BRE1 (HIV-1Asym.)": {"tested_on": "HIV-1 BRE1 (HIV-1Asym.)", "test": "HIV P24 production in PBMC, viral inoculum pretreated, isolate BRE1", "type": "cell-based", "conditions": "virus pretreated with 30 or 60 μg/ml", "protocol": "as §1"}, "[7]": {"test": "Sub-chronic administration toxicity in rats", "type": "in vivo, male and female Sprague-Dawley rats (OPA)", "conditions": "530 and 2120 mg/kg/day", "description": "No lesions of the liver, kidneys, duodenum, myocardia, spleen, thyroid and parathyroid glands, testicles or ovaries were visible by microscope."}, "interleukin-6": {"tested_on": "interleukin-6", "test": "IL-6 production by monocytes of normal donors", "type": "cell-based, human", "protocol": "as §3\nNormal donors--voluntary blood donors who attended the blood bank of the Pitie-Salpetriere Hospital, Paris, France; and […]"}, "IL-1β [8]": {"tested_on": "IL-1β", "test": "IL-1β production by monocytes of normal donors", "type": "cell-based, human", "protocol": "as §3\nNormal donors--voluntary blood donors who attended the blood bank of the Pitie-Salpetriere Hospital, Paris, France; and\nas §2"}}}
{"smiles": "CCc1ccc2c3[nH]c4ccccc4c3cc[n+]2c1", "note": "[flavopereirine]", "values": [{"measurement": "infection of target PBMC", "setting": "HIV-1 TIG2 (HIV-1AIDS) [1]", "value": "completely prevented the infection of target PBMC"}, {"measurement": "cytotoxicity", "setting": "[2]; 30 μg/ml, four donors", "value": "> 40", "unit": "%"}, {"measurement": "MCC", "setting": "[2]; healthy and asymptomatic HIV-positive donors, read-out: toxic dosage on human monocytes in vitro", "value": "> 20", "unit": "µg/mL"}, {"measurement": "cytotoxicity", "setting": "human monocytes; 30, 50, 100 μg/ml", "value": "virtually total cytotoxicity"}, {"measurement": "cytotoxicity", "setting": "human monocytes; above 30 μg/ml", "value": 100, "unit": "µg/mL"}, {"measurement": "Post-infection production of HIV P24", "setting": "HIV-1 TIG2 (HIV-1AIDS) [3]; d3", "value": "515 ± 103", "unit": "pg/mL"}, {"measurement": "Post-infection production of HIV P24", "setting": "HIV-1 TIG2 (HIV-1AIDS) [3]; d5", "value": "> 1500", "unit": "pg/mL"}, {"measurement": "inhibition of productive viral infections", "setting": "HIV-1 TIG2 (HIV-1AIDS) [3]; target PBMC pretreated with 60 μg/ml only", "value": "complete inhibition of productive viral infections"}, {"measurement": "direct activity on base production of IL-1β", "setting": "IL-1β [4]; HIV-positive donors", "value": "No modification on the base production was observed"}, {"measurement": "indirect activity on production of interleukin-1", "setting": "IL-1β [4]; three dosages, p<0.05", "value": "absence of any impact on the production of interleukin-1"}, {"measurement": "appearance and development of vital papules", "setting": "[5]", "value": "prevents the appearance and development of vital papules"}, {"measurement": "multiplication of non-infected cells", "setting": "H-9 cells", "value": "does not affect the multiplication of non-infected cells"}, {"measurement": "syncytia", "setting": "HIV-1; 100 ng/ml, d7, duplicate, Table I", "value": "++/T"}, {"measurement": "syncytia", "setting": "HIV-1; 1 μg/ml, d7, duplicate, Table I", "value": "++/T"}, {"measurement": "syncytia", "setting": "HIV-1; 30 μg/ml, d6, duplicate, Table III", "value": "a few were observed after 6 days"}, {"measurement": "syncytia", "setting": "HIV-1; 50 μg/ml, d7, duplicate, Table I", "value": "syncytia had not formed after 7 days culture"}, {"measurement": "protection", "setting": "HIV-1; 50 μg/ml, Table II summary", "value": "confirms the protection"}, {"measurement": "syncytia", "setting": "HIV-1; 60 μg/ml, d7, duplicate, Table III", "value": "no syncytia were formed"}, {"measurement": "syncytia", "setting": "HIV-1; from 10 μg/ml to 100 ng/ml, Table I summary", "value": "syncytia was observed, as it was in the HIV-1 control"}, {"measurement": "CD2", "setting": "HIV", "value": "Increase"}, {"measurement": "CD4", "setting": "HIV", "value": "Increase"}, {"measurement": "CD4+ cells", "setting": "HIV", "value": "significant increase"}, {"measurement": "CD8", "setting": "HIV", "value": "Increase"}, {"measurement": "CD19", "setting": "HIV", "value": "Increase"}, {"measurement": "CD19+ cells", "setting": "HIV", "value": "significant increase"}, {"measurement": "Karnofsky's index", "setting": "HIV", "value": "~100", "unit": "%"}, {"measurement": "blood or renal toxicity", "setting": "HIV", "value": "Neither blood nor renal toxicity was observed"}, {"measurement": "degradation in CDC classification", "setting": "HIV", "value": "No degradation in the CDC classification"}, {"measurement": "effect on viral infectional capacity of HIV", "setting": "HIV", "value": "significant inhibitory effect on the viral infectional capacity of HIV"}, {"measurement": "hemoglobin", "setting": "HIV", "value": "Increase"}, {"measurement": "infections", "setting": "HIV", "value": "no infections were noticed"}, {"measurement": "microglobulin beta-2", "setting": "HIV", "value": "Increase"}, {"measurement": "modification in ALAT or ASAT", "setting": "HIV", "value": "nor was there any significant modification in ALAT or ASAT"}, {"measurement": "patients with negative decline in CD4+ reversed", "setting": "HIV", "value": "18 out of 19"}, {"measurement": "physical and professional activity", "setting": "HIV", "value": "remained completely normal"}, {"measurement": "red cells", "setting": "HIV", "value": "Increase"}, {"measurement": "side effects", "setting": "HIV", "value": "Side effects were few, occurring only in the first three months"}, {"measurement": "total lymphocyte mass", "setting": "HIV", "value": "Increase"}, {"measurement": "toxic or side effects", "setting": "HIV; po", "value": "devoid of toxic or side effects"}, {"measurement": "viability of blast PBMC", "setting": "[6]; 200 μg/ml, p<0.001", "value": "diminished significantly"}, {"measurement": "significant reduction of viability of blast PBMC", "setting": "[6]; 100, 60, 30 and 10 μg/ml", "value": "this was not the case"}, {"measurement": "infection of target PBMC", "setting": "HIV-1 BRE1 (HIV-1Asym.)", "value": "completely prevented the infection of target PBMC"}, {"measurement": "alteration in globular blood count", "setting": "[7]", "value": "Neither was any alteration in the globular blood count noted"}, {"measurement": "alterations in body weight or feeding", "setting": "[7]", "value": "no alterations were noted in either body weight or feeding"}, {"measurement": "hepatic and renal functions", "setting": "[7]", "value": "remained normal"}, {"measurement": "lesions of liver, kidneys, duodenum, myocardia, spleen, thyroid, parathyroid, testicles, ovaries", "setting": "[7]; microscope", "value": "No lesions"}, {"measurement": "activity on cytokine production", "setting": "interleukin-6; doses of less than 5 μg/ml, first two normal donors, cytokine not specified", "value": "inactive"}, {"measurement": "direct activity on production of interleukin-6", "setting": "interleukin-6; normal donors", "value": "No modification in response was observed"}, {"measurement": "indirect activity on production of IL-6", "setting": "interleukin-6; stimulated monocytes, dose-dependent, never total, P<0.05", "value": "sharp reduction in the production of IL-6"}, {"measurement": "direct activity on production of IL-1β", "setting": "IL-1β [8]; donor #10, 10 and 20 μg/ml", "value": "responded very well"}, {"measurement": "direct activity on production of IL-1β", "setting": "IL-1β [8]; donors #3, 5 and 6, dose effect, marginal", "value": "Increase in the production of IL-1β"}, {"measurement": "indirect activity on production of IL-1β", "setting": "IL-1β [8]; response to LPS or IFN-γ+LPS, p<0.05", "value": "no significant modification"}]}
